We go through six compounds from US20260227411A1, “CONJUGATED METABOLITES FOR CANCER DETECTION AND TREATMENT” (VANDERBILT UNIVERSITY, priority 2023, published 2026).

The subject of series [1] is dysplastic organoids. In words: Metabolite rescue of A939572-treated dysplastic organoids. Format: cell-based, mouse. As to the method:
For metabolic enzyme inhibitor treatment, the media was switched to metabolic enzyme inhibitor containing media at one day after splitting the mouse gastric organoids and cultured for 3 days. For metabolite treatment, mouse gastric organoids were treated 100 nM A939572 with metabolites (cis-11-eicosenoic acid or cis-7,10,13,16-docosatetraenoic acid) at one day after splitting the mouse gastric organoids and cultured for 3 days. The EVOS M7000 inverted microscope (Thermo Fisher Scientific) or JuLI™ stage, a Real-Time Cell History Recorder (NanoEntek) were used to capture phase contrast images of the organoids or monitor the growth and morphological changes of the organoids in real-time. Quantitative data analyses were performed using at least 3 wells of images at 4× magnification. For measurement of organoid growth, phase contrast images of organoids were captured over time and measured at the widest diameters using the ZEN 3.3 blue edition (Zeiss) measuring tool. For Calcein AM/Ethidium-1(EthD-1) staining, mouse gastric organoids were cultured for 1 day after splitting and transferred to microfluidic-based flowchips (Protein Fluidics) that can enable 3D cell-based assay. The media containing 100 nM A939572 with metabolites (cis-11-eicosenoic acid or cis-7,10,13,16-docosatetraenoic acid) was added to the top of the organoids and cultured for 3 days. Then, the organoids were stained with […] (L3224, Thermo Fisher Scientific) for 30 min at 37° C. Confocal imaging was performed on a Zeiss LSM 880 using a 20× magnification. To prepare Formalin-Fixed, Paraffin-Embedded (FFPE) organoid sections, whole mouse or human gastric organoids in Matrigel™ were fixed in 4% PFA for 30 min at RT and washed with 1×PBS twice. The organoids were embedded in Epredia™ HistoGel™ (HG-4000-012, Thermo Fisher Scientific) and processed according to a standard histological protocol for paraffin embedding.
To address how and why dysplastic cells utilize the SCD-dependent FA desaturation, experiments examined the functions of two different unsaturated long-chain FAs, MUFA (FFA 20:1) and PUFA (FFA 22:4), which were abundant in dysplasia. Two metabolites, Eicosenoic acid (EA; 20:1n9, MUFA) and Docosatetraenoic acid (DA; 22:4n6, PUFA) (FIG. 7A) were selected based on the enhanced fragment ions detected from imaging mass spectrometry (FIG. 3E). Dysplastic organoids were co-treated with A939572, in combination with either EA or DA for 3 days. […] To determine the subcellular localization of EA in dysplastic cells, EA was conjugated with NBD, a green-fluorescent compound (NBD-EA) (FIG. 7B and FIG. 8A-B). […] Since the EA is imported into mitochondria, experiments further examined whether the EA undergoes FA oxidation which occurs in the mitochondrial aerobic metabolism and produces energy substrate for the TCA cycle.

Another series concerns dysplastic cells. The experiment in a line: Subcellular localization of NBD-EA in 2-dimensional monolayer culture. Format: cell-based, mouse. The method, then:
Mouse gastric organoids were dissociated into single cells and dissociated cells (5,000 cells/well) were seeded on the collagen-coated 8-well chamber slide (ibidi) in Mouse IntestiCult medium (06005, StemCell Technology) for two days until the cells reach at 50% confluency. The cells were incubated with NBD (Compound A) or NBD-conjugated Eicosenoic acid over time and then stained with 100 nM MitoTracker™ Red CMXRos (M7512, Thermo Fisher Scientific) for 20 min at 37° C. The cells were washed with pre-warmed 1×PBS three times and counterstained with Hoechst for 5 min at RT. Confocal imaging was performed on a Zeiss LSM 880 using 63× magnification.

In the next series the test system is AGS. In words: EA-DM1 treatment of gastric cancer cell line AGS. The class given is cell-based. The method, then:
(§1) FIG. 9A-B show cells treated with EA-DM1 (cis-11-eicosenoic acid conjugated to mertansine (DM1)). […] DMSO was used as a vehicle control. […] The NIH-3T3 cell line was used as a negative control, and mouse normal cells and DMSO were used as a vehicle control.
(§2) To evaluate whether EA-DM1 (cis-11-eicosenoic acid conjugated to mertansine (DM1)) could be internalized and release free DM1 toxin into the cytosol, two different gastric cancer cell lines, AGS and NCI-N87, were treated with EA-DM1 for 2 days (FIG. 9A-B). Gastric cancer cells died within 2 days after the EA-DM1 treatment at 100 nM concentration (FIG. 9A).

A further series relates to NCI-N87. The experiment in a line: EA-DM1 treatment of gastric cancer cell line NCI-N87. The class given is cell-based. Conditions: 100 nM. As to the method: as §1, §2
Another series has as its system NIH-3T3 cells. In words: EA-DM1 treatment of NIH-3T3 cells (negative control). The class given is cell-based, mouse. The following applies: 5 nM, 2 days. As to the method: as §1, §2
Series [2] has as its system dysplastic organoids. In words: Metabolic enzyme inhibitor treatment of mouse dysplastic organoids. The class given is cell-based. As to the method:
(§3) Mouse gastric organoids were established from corpus of untreated or Gif-rtTA; TetO-Cre; KrasG12D (GCK) mouse stomachs as described previously. The GCK mouse gastric organoids were cultured in ECM Gel (E1270, Sigma-Aldrich) or Cultrex® Reduced Growth Factor Basement Membrane Extract, Type R1 (3433-005-R1, R&D systems) with Mouse IntestiCult medium (06005, StemCell Technology) supplemented with 1% of penicillin/streptomycin (2441832, Gibco) in 48-well plates. The medium was replaced every 3 days and organoids were split every 3 to 5 days. Human gastric organoids were previously established from patients who underwent curative gastrectomy as described. The human gastric organoids were cultured in Corning™ Matrigel™ Membrane Matrix (356231, Thermo Fisher Scientific) with Human IntestiCult medium (06010, StemCell Technology) supplemented with 1% of penicillin/streptomycin, 0.2% of MycoZap (VZA-2031, Lonza) in a 48-well plate.
For metabolic enzyme inhibitor treatment, the media was switched to metabolic enzyme inhibitor containing media at one day after splitting the mouse gastric organoids and cultured for 3 days. For metabolite treatment, mouse gastric organoids were treated 100 nM A939572 with metabolites (cis-11-eicosenoic acid or cis-7,10,13,16-docosatetraenoic acid) at one day after splitting the mouse gastric organoids and cultured for 3 days. […] Quantitative data analyses were performed using at least 3 wells of images at 4× magnification. For measurement of organoid growth, phase contrast images of organoids were captured over time and measured at the widest diameters using the ZEN 3.3 blue edition (Zeiss) measuring tool. […]
To determine the role of metabolic switch in dysplastic cells, expression levels of key metabolic enzymes, important for glycolysis or FA metabolism, were examined using gastric organoids established from each stage of GCK mice (FIG. 4A). […] The functional roles of metabolic pathways were assessed using key enzyme inhibitors in dysplastic organoids which highly expressed SCD1 (FIG. 4E). […]

A further series deals with normal gastric organoids. The experiment in a line: A939572 treatment of normal gastric organoids. The following applies: 100 nM A939572. The class given is cell-based, mouse. As to the method:
as §3, with “The human gastric organoids were cultured in Corning™ Matrigel™ Membrane Matrix (356231, Thermo Fisher Scientific) with Human IntestiCult medium (06010, StemCell Technology) supplemented with 1% of penicillin/streptomycin, 0.2% of MycoZap (VZA-2031, Lonza) in a 48-well plate.” left out
For metabolic enzyme inhibitor treatment, the media was switched to metabolic enzyme inhibitor containing media at one day after splitting the mouse gastric organoids and cultured for 3 days. […] Quantitative data analyses were performed using at least 3 wells of images at 4× magnification. For measurement of organoid growth, phase contrast images of organoids were captured over time and measured at the widest diameters using the ZEN 3.3 blue edition (Zeiss) measuring tool. […]

Series [3] concerns human gastric organoid lines. The experiment in a line: A939572 treatment of human gastric organoid lines. Format: cell-based. The following applies: 1 μM for human.
Series [4] relates to Gif-rtTA; TetO-Cre; Kras^G12D (GCK) mice. In words: In vivo A939572 treatment of GCK mice. The following applies: 20 mg/kg intraperitoneal daily for 2 weeks.
Method: All experiments involving mice used in this study followed protocols approved by the Institutional Animal Care and Use Committees of Vanderbilt University Medical Center. Littermates or age-matched mice were randomly allocated to experimental or control groups. Animal weights were recorded at initiation of experiment and at the time of euthanasia. To generate the Gif-rtTA; TetO-Cre; Kras^G12D (GCK) mice, the Gif-rtTA mice were crossed with TetO-Cre mice and Lox-Stop-Lox (LSL)-Kras^G12D mice (no. 006224 and 008179, Jackson Laboratories). For the induction of Cre-mediated recombination, 6-week-old mice were administered with doxycycline water at a concentration of 1 mg/mL for 2 weeks. Mice were sacrificed at 2 to 14 weeks after doxycycline treatment for histological examination. For in vivo A939572 treatment, A939572 (HY-50709; MedChemExpress) was dissolved in dimethyl sulfoxide (DMSO) as a 100 mg/mL stock and stored at −80° C. in aliquots. The A939572 was administered daily for two weeks by intraperitoneal injection (20 mg/kg diluted in corn oil) to mice at 6 weeks after doxycycline treatment. Mice were sacrificed within a day after the last A939572 treatment.
Mouse tissues were isolated and fixed overnight in 4% paraformaldehyde, embedded in paraffin. Paraffin-embedded sections were sectioned at a thickness of five-micrometer and stained with hematoxylin and eosin (H&E). For immunostaining, unstained paraffin tissue sections were deparaffinized in HistoClear (HS-200, National Diagnostics) and rehydrated through a serial dilution of ethanol. Antigen retrieval was performed in target retrieval solution (S1699 or S2367, Agilent) using a pressure cooker for 15 minutes. Sections were rinsed in dH2O and incubated with Serum-free Protein Block Solution (X0909, Agilent) for 1.5 hours at room temperature (RT). Sections were additionally incubated with Mouse on Mouse Blocking Reagent (MKB-2213-1, Vector Laboratories) for 30 min at RT to block nonspecific staining with primary antibodies generated in mice on mouse tissues. Primary antibodies were diluted in Antibody Diluent (S3022, Agilent) and applied to sections overnight at 4° C.
For immunofluorescence, paraffin sections were washed with 1×PBS three times and incubated with Alexa-conjugated secondary antibodies (Life Technologies, 1:500) for 1 hour at RT. Sections were washed with 1×PBS three times and incubated with Hoechst 33342 (62249, Thermo Fisher Scientific, 1:5000) for 5 min at RT. The sections were then washed with 1×PBS three times and mounted with Prolong gold anti-fade reagent (P36934, Thermo Fisher Scientific). Images were captured on a Zeiss Axio Imager M2 microscope with Axiovision digital imaging system at 20× magnification. For immunohistochemistry, paraffin sections were washed with 1×PBS three times and incubated with HRP-conjugated secondary antibodies (MP-7402, Vector Laboratories) for 15 min at RT. Sections were washed with 1×PBS three times and incubated with Envision+ Detection System Peroxidase/DAB substrate (Dako). Sections were then washed with dH2O and counterstained Mayer's Hematoxylin (MHS32, Sigma-Aldrich). The sections were dehydrated and mounted with aqueous mounting medium. The sections were scanned on an SCN400 Slide Scanner (Leica Biosystems) at 20× magnification. TUNEL staining was performed using the Click-iT Plus TUNEL assay kit, according to the manufacturer's protocol (C10618, Life Technologies).
H&E-stained sections were scanned in SCN400 Slide Scanner and analyzed by Aperio ImageScope software (Leica Biosystems). Gland types were classified using the same diagnostic criteria used for human tissue sections. Briefly, the gland representing foveolar hyperplasia without goblet cells and mucous metaplasia at the base was diagnosed as a pyloric metaplastic gland, while intestinal metaplasia was determined by presence of basophilic mucin droplet-containing cells in the foveolar region.
The mark [5] stands for this setting: co-treated with 100 nM A939572 for 3 days.

The structures appear in SMILES notation.

With `CCCCCC=CCC=CCC=CC/C=C\CCCCCC(=O)O` [DA, cis-7,10,13,16-docosatetraenoic acid], in the series with dysplastic organoids [1] (setting [5]), the “rescue of dysplastic organoids from SCD inhibition (organoid size)” value is recorded as “did not show any differences compared to the organoids treated only with A939572”.

Take `CCCCCCCC/C=C\CCCCCCCCCC(=O)Nc1ccc([N+](=O)[O-])c2nonc12` [NBD-EA, NBD-cis-11-Eicosenoic acid (C20:1, n-9)]: the results for the “NBD fluorescent signal in dysplastic cells” value in the series with dysplastic cells (6 h after treatment), in the series with dysplastic cells (24 h) and in the series with dysplastic cells (48 h) were “not detectable”, “strongly accumulated in mitochondria” and “weakly maintained”, respectively.

Regarding `CCCCCCCC/C=C\CCCCCCCCCC(=O)N1CCN(C(=O)CSCCC(=O)N(C)[C@H](C)C(=O)O[C@@H]2CC(=O)N(C)c3cc(cc(OC)c3Cl)C/C(C)=C/C=C/[C@H](OC)[C@]3(O)C[C@@H](OC(=O)N3)[C@H](C)[C@H]3O[C@@]32C)CC1` [EA-DM1, (1^4S,1^6S,3^2S,3^3R,2R,4S,10E,12E,14R)-8^6-chloro-1^4-hydroxy-8^5,14-dimethoxy-3^3,2,7,10-tetramethyl-1^2,6-dioxo-7-aza-1(6,4)-oxazinana-3(2,3)-oxirana-8(1,3)-benzenacyclotetradecaphane-10,12-dien-4-yl N-(3-((2-(4-((Z)-icos-11-enoyl)piperazin-1-yl)-2-oxoethyl)thio)propanoyl)-N-methyl-L-alaninate], in the series with AGS (5 nM, 2 days), the “targeting of gastric cancer cells” value is listed as “effectively targeted gastric cancer cells”. Also, the “time within which gastric cancer cells died after treatment” value with AGS (100 nM) and in the series on NCI-N87 was not above 2 days in each case. Moreover, the “changes in normal mouse fibroblast cells” value in the series on NIH-3T3 cells is “no noticeable changes”.

Regarding `CCCCCCCC/C=C\CCCCCCCCCC(=O)O` [EA, cis-11-eicosenoic acid], in the series with dysplastic organoids [1] (setting [5]), the organoid structure result is “not disrupted and showed clear central lumens”; the “rescue of dysplastic organoids from SCD inhibition (organoid size)” value was “recovered from SCD inhibition and displayed a significant increase in size”.

As to `C1CCC(C(CC2CCCCN2)C2CCCCC2)CC1` (stereo not drawn) [perhexiline], the “organoid growth after co-treatment” value in the series with dysplastic organoids [1] (A939572, EA and perhexiline 10 μM, 3 days) is “did not display any significant increase in organoid growth”. Besides, the “effect of FA oxidation inhibition on rescue by EA” value in the series on dysplastic organoids [1] (perhexiline 10 μM with A939572 and EA, 3 days) is reported as “abolished rescue effects of EA in dysplastic organoids”.

For `CNC(=O)c1cccc(NC(=O)N2CCC(Oc3ccccc3Cl)CC2)c1` [A939572, 4-(2-chlorophenoxy)-N-(3-(methylcarbamoyl)phenyl)piperidine-1-carboxamide], the “time within which dysplastic organoid growth and survival were impeded” value with dysplastic organoids [2] (100 nM A939572) is not above 1 days. Moreover, in the series with dysplastic organoids [2] (100 nM A939572, IF staining), the “cell proliferation (Ki-67) in dysplastic organoids” value is “a decrease in cell proliferation” and the “cleaved caspase-3 positive apoptotic cells in dysplastic organoids” value is given as “accumulation of cleaved caspase-3 positive apoptotic cells in the central lumen of dysplastic organoids”. Also, the “response of normal gastric organoids” value in the series with normal gastric organoids was “did not show any significant changes”. The “time within which organoids died after treatment” value in [3] (organoid lines with dysplastic histology expressing both SCD and Trop2) is on record as not above 6 days. For the same compound, the response to treatment entry in [3] (organoids with low level of SCD, Trop2 negative (metaplastic)) is “did not respond to the treatment”. Besides, in series [4], the “F4/80+CD68+ macrophages” value is “slightly increased only at the base of glands”; the “F4/80+CD68- macrophage infiltration” value was “significantly increased in the transitioning and surface areas”; the “SPEM cells after treatment” value was “still present at the gland base and not co-positive for cleaved caspase-3 or TUNEL signal”; the “dead cells within the transitioning cell zone (cleaved caspase-3, TUNEL)” value is recorded as “significant increase in dead cells”. For the same compound, in series [4] (at 6 weeks after doxycycline), the “effects in other organs” value is listed as “without any effects in other organs”; the “gastric mucosa histology (H&E)” value was “flattened mucosa and loss of histological characteristics of dysplastic cells in the transitioning and surface areas of glands”.
